Square brackets hold non-standard residues; d marks the D form. Peptide text beside a SMILES is read from it. Arg(Me) = CNC(=N)NCCC[C@H](N)C(=O)O; d3Pal = N[C@H](Cc1cccnc1)C(=O)O; azaGly = NNC(=O)O
These molecules were tested on Colon organoid.
Format: functional, Homo sapiens

For `CNC(=N)NCCC[C@H](NC(=O)[C@H](CC(C)C)NC(=O)NNC(=O)[C@H](Cc1ccccc1)NC(=O)[C@H](CO)NC(=O)[C@H](CC(N)=O)NC(=O)[C@@H](Cc1cccnc1)NC(=O)[C@H](N)Cc1ccc(O)cc1)C(=O)NCC(N)=O` [KISS1-543] (H-[dY][d3Pal]NSF[azaGly]L[Arg(Me)]G-NH2), which “Cell Viability Ratio” value is on record?
Its value is 1.03.

With `CN(C)C(=O)N1CC[C@H](NC2=Nc3cc(F)ccc3N(CC(F)F)c3ccc(Cl)cc32)C1` as the molecule, how does the “Cell Viability Ratio” value read?
Its value is 0.9552.

Which “Cell Viability Ratio” value does the source give for `Cc1noc([C@H]2C[C@@H](c3ccc(C(F)(F)F)cc3)CN(C(=O)N3CCS(=O)(=O)C3)C2)n1` [BAY-448] here?
The value was 0.9504.

How did the “Cell Viability Ratio” value turn out when `Cn1c(-c2csc(C3CCN(CC4=NC5N=CC=CC5N4)CC3)n2)nc2ccccc21` (stereo not drawn) [BAY-070] was run?
Its value is 0.9524.

With `C[C@H](c1ccc(F)cc1)N(Cc1ccc(Cl)c(C(=O)O)c1)C(=O)c1cnc2ccccc2c1` [PF-05257137] as the molecule, how does the “Cell Viability Ratio” value read?
The value was 1.055.

How did the “Cell Viability Ratio” value turn out when `O=C(Nc1cnc(Oc2ccc(F)cc2)nc1)N1CCc2ncccc2[C@@H]1c1ccc(F)cc1` [BAY-899] was run?
The value was 1.086.

Which “Cell Viability Ratio” value does the source give for `CC(=O)NCC(=O)N1[C@@H]2CC[C@H]1c1ccc(Nc3ncc(C(F)(F)F)c(NC4CCC4)n3)cc12` [PF-03814735] here?
Its value is 0.4683.

`Cn1cc(-c2ccc3occ(-c4cccc(-c5ccncc5)c4)c3n2)cn1` was tested. Which “Cell Viability Ratio” value did it give?
The value was 0.9731.

`CCCCNc1ncc(-c2ccc(CN3CCOCC3)cn2)c(N[C@H]2CC[C@H](O)CC2)n1` was tested. Which “Cell Viability Ratio” value did it give?
The value was 1.102.

With `CO[C@@H](C)c1c(Nc2ccc([C@@H](N(C)C(=O)C3CCS(=O)(=O)CC3)C(F)(F)F)cc2)cnc2cc(Cl)nn12` [NVS-MALT1-C] as the molecule, how does the “Cell Viability Ratio” value read?
The value was 1.209.

For `c1ccc2oc(-c3csc(C4CCN(Cc5nc6ncccc6[nH]5)CC4)n3)cc2c1`, which “Cell Viability Ratio” value is on record?
The value was 0.6127.

Which “Cell Viability Ratio” value does the source give for `CCNC(=O)c1cc2c(N3CCOC[C@@H]3C)ccnc2[nH]1` here?
The value was 0.9047.

How did the “Cell Viability Ratio” value turn out when `Cc1c(N2CCCC2)nc2ccc(Br)cc2c1C(=O)NC[C@H](CCC(=O)O)c1ccccc1Cl` [BAY-6672] was run?
Its value is 0.9418.

— ChEMBL document CHEMBL5724803, “Viability screening in matched tumor and normal assay results for EUbOPEN Chemogenomics Library” (2024)
